BigSolDB 2.1

CC(C)(C)c1cc(CCC(=O)OCC(COC(=O)CCc2cc(C(C)(C)C)c(O)c(C(C)(C)C)c2)(COC(=O)CCc2cc(C(C)(C)C)c(O)c(C(C)(C)C)c2)COC(=O)CCc2cc(C(C)(C)C)c(O)c(C(C)(C)C)c2)cc(C(C)(C)C)c1O
solubility (mole fraction)
Conditions	293.15 K	298.15 K	303.15 K	308.15 K	313.15 K	318.15 K	323.15 K	328.15 K	333.15 K
in ethanol	0.000302	0.000445	0.000685	0.00105	0.0016	0.00238	0.00351	0.0051	0.0074
in isopropanol	0.000148	0.000239	0.000406	0.000631	0.000998	0.00158	0.00252	0.00411	0.00638
in methanol	0.000221	0.000332	0.000544	0.000812	0.00126	0.00203	0.00287	0.00429	0.00726
